This is an account of results in publication PMC10867458, “Depolymerization of actin filaments by Cucurbitacin I through binding G‐actin” (Food Science & Nutrition, 2023).

Experiment [1] has as its target T1, G-actin (rabbit skeletal muscle actin) (Oryctolagus cuniculus, UniProt P68135).
T1 construct: gene ACTA1
Kind of experiment: differential scanning fluorimetry (SYPRO orange) with Kd; also pyrene-actin polymerization inhibition. In kind it is binding. Background: DSF heats the sample and reads unfolding from a dye or from intrinsic fluorescence.

For experiment [2], the target named is T1, G-actin (rabbit skeletal muscle actin). Nature of the experiment: pyrene-actin polymerization assay, […] (V50 […] vs control […]). Format: biochemical.
Experiment [3] has the same target. The experiment is described as above. In kind it is biochemical. The source holds these as a separate data set.

Molecules are shown by their SMILES. Where two headings read alike, the source gives them in different places.

`CC(C)(O)/C=C/C(=O)[C@](C)(O)[C@H]1[C@H](O)C[C@@]2(C)[C@@H]3CC=C4[C@@H](C=C(O)C(=O)C4(C)C)[C@]3(C)C(=O)C[C@]12C` [CuI, Cucurbitacin I]: the Kd in experiment [1] stood at 30 ± 2.5 nM.
For `C=C1[C@@H](C)[C@H]2[C@H](Cc3ccccc3)NC(=O)[C@]23[C@H](OC(C)=O)/C=C/[C@@](C)(O)C(=O)[C@@H](C)C/C=C/[C@H]3[C@@H]1O` [Cytochalasin D], in experiment [2], the “V 50” value was found to be 77.59 ± 7776.
In the case of `C/C1=C\[C@H](C)C[C@H](C)OC(=O)C[C@H](c2ccc(O)cc2)NC(=O)[C@@H](Cc2c(Br)[nH]c3ccccc23)N(C)C(=O)[C@H](C)NC(=O)[C@@H](C)C1` [Jasplakinolide], in experiment [3], the “V 50” value stood at 54.7 ± 5114.

What is called Kd is the concentration at which binding is half-saturated. A low value points to a tighter complex.
